The results in this text go back to patent publication US4517180A, “Peptides, process for preparing the same and psychodepressant compositions containing the same” (Amano Pharmaceutical Co., Ltd, priority 1982, dated 1985).

The structures appear in SMILES notation. “Also recorded” adds a separate entry of the source. Where a SMILES comes first, the peptide text is derived from it.

Data set [1] concerns Male ddy mice. Kind of data set: Effect on climbing behavior induced by apomorphine (Pharmacological Test 2). On the set-up: key to Average: Mean ± S.E. (total of 7 scores), climbing behavior: sum of 7 scores; 0 = all four legs on floor, 2 = ≥3 legs on rods. As to conditions: for Average: Mean ± S.E. (total of 7 scores), climbing behavior: 30 min before apomorphine 0.75 mg/kg s.c., control 9.8 ± 0.7. Type of data set: in vivo. The protocol: (§1) Effect on climbing behavior induced by apomorphine
Male ddy mice (weighing 20 to 30 g) were used, with 10 mice in each group. Each mouse was placed into a cylindrical cage, 12 cm in diameter and 14 cm in height, made up of vertical rods of 2 mm in diameter spaced apart at a distance of 10 mm in a circular arrangement. The mouse was allowed to stand therein for 2 hours. Peptide A, peptide B, CCK-8 or, as a control, the above-mentioned diluent was subcutaneously given to the animal, and 30 minutes later, 0.75 mg/kg of apomorphine was subcutaneously given. […] The test was carried out in soundproof compartments.
(§2) 0: All the four legs are on the floor.
(§3) 2: At least three legs are on rods.
Student's t-test was resorted to for statistical treatment.

Data set [2] relates to male Wister rats. Put plainly: Effect on metabolism of amine in the brain. In kind it is in vivo. On the procedure:
Effect on metabolism of amine in the brain
Unfasted male Wister rats (weighing 180 to 220 g) were used. Peptide A or peptide B was subcutaneously given to the animal at a dose of 1 mg/kg, the head was irradiated with microwave 1 hour thereafter, and amine metabolite was extracted from the brain. First, removed tissues were homogenized with 1M formic acid and centrifuged at 20,000×g for 20 minutes, and the supernatant (1 ml) was shaken with 5 ml of ethyl acetate. The 3,4-dihydroxyphenylacetic acid (DOPAC), homovanillic acid (HVA) and 5-hydroxyindoleacetic acid (5-HIAA) in the ethyl acetate layer were analyzed by high-performance liquid chromatography under the following conditions. Chemcosorb, 5-ODS, 20 cm×4.6 mm I.D. was used for a separating column, and a mobile phase (0.1M KH2 PO4 (pH 5.0)-5 mM EDTA-2Na-5% acetonitrile) was passed through the colunn at a flow rate of 1 ml/min. The electrochemical detector was set to an oxidation potential of +0.8 V.

In data set [3] the test system is male Wister rats. Put plainly: Effect on yawning behavior induced by apomorphine. In kind it is in vivo. On the procedure:
Effect on yawning behavior
Male Wister rats (weighing 200 to 300 g) were used, with 10 rats in each group. The rat was placed into a plastics cage (17×24×12 cm) with a floor mat and was then habituated for 30 minutes. Peptide A, peptide B, CCK-8 or the above-mentioned diluent serving as a control was subcutaneously given to the animal. Thirty minutes thereafter, 0.03 mg/kg of apomorphine was subcutaneously given to the animal. The number of yawns induced by apomorphine was counted during a period of 30 minutes following administration of apomorphine. The test was conducted in a soundproof compartment for each animal. Wilcoxon rank-sum test was resorted to for statistical treatment.

Data set [4] relates to male Wister rats. Kind of data set: Effect on the fixed ratio (FR20) responding in rats. In kind it is in vivo. The conditions noted are these: s.c., 15 min before 20 min session, dose giving count 50 with control as 100. The protocol:
Effect on the fixed ratio responding in rats
The test was conducted according to the method described in Ahlenius S. and Engel J., Eur. J. Pharm., Vol. 15, 187-192 (1971).
Male Wister rats (weighing 240 to 320 g) were placed into Skinner box (product of Bil-Medika Co., Ltd., Japan, adapted to give a feed when a lever within the box is pressed) and made to learn how to take the food. In this test, one feed was given to the rats when the lever was pressed 20 times, i.e., fixed ratio (FR) 20. The rats showing stable FR20 response were divided into groups each including four rats.
Physiological saline (containing 1 mM of sodium hydrogencarbonate) containing a specified amount of a test compound was subcutaneously given to the rats of one group in a volume of 0.1 ml/100 g. (Physiological saline containing the above-mentioned amount of sodium hydrogencarbonate only was given to the control group). Fifteen minutes after the administration, the test animals were placed in the Skinner box, and the number of times the animals took the feed for 20 minutes was counted. The dose at which the count gained by the group of animals was 50, namely, ED50 value, was determined, with the count gained by the control group calculated as 100. The same procedure as above was repeated with use of the other test compounds.

Data set [5] deals with Male ICR mice. Kind of data set: Inhibitory effect on hyperlocomotion induced by administration of methylphenidate. Type of data set: in vivo. As to conditions: for ED50, inhibition of methylphenidate-induced hyperlocomotion: s.c. with methylphenidate 10 mg/kg s.c., measured 1 hour after, 50 with control as 100. On the procedure: Inhibitory effect on hyperlocomotion induced by administration of methylphenidate
Male ICR mice (weighing 24 to 30 g) were divided into groups, each including 10 mice. To one group of mice were subcutaneously given 10 mg/kg of methylphenidate and 0.1 ml/10 g of a saline solution of a specified amount of a test compound and 1 mM of sodium hydrogencarbonate. One hour after the administration, the test animals were checked for hyperlocomotion, which was measured with use of a device for measuring locomotion of small animals (wherein the motion of an animal shifts the center of graavity of the device to actuate a microswitch for the measurement of the amount of motion, see Folia Pharmacologica Japonica, 74, 629-639 (1978). For a control group, the same procedure as above was repeated except that the saline solution given was free from any test compound. The concentration of the test compound at which the result achieved by the group of animals was 50, namely, ED50 value, was determined, with the measurement obtained by the control group calculated as 100. The other compounds were tested in the same manner as above.

In data set [6] the test system is Male ddy mice. Put plainly: Effect on climbing behavior induced by apomorphine (Pharmacological Test 7). On the set-up: key: sum of 7 scores; each 0 = four legs on floor, 2 = ≥3 legs on rods. Type of data set: in vivo. As to conditions: control 9.8 ± 0.7. On the procedure: as §1
Male ddy mice (weighing 20 to 30 g) were used, with 10 mice in each group. Each mouse was placed into a cylindrical cage, 12 cm in diameter and 14 cm in height, made up of vertical rods of 2 mm in diameter spaced apart at a distance of 10 mm in a circular arrangement. The mouse was allowed to stand therein for 2 hours. Physiological saline containing a specified amount of a test compound (and 1 mM of sodium hydrogencarbonate) was subcutaneously given to one group of mice in a volume of 1 ml/10 g. (The same dose of saline only was given to a control group). […] The test was carried out in soundproof compartments.
as §2, §3
The other compounds were tested in the same manner as above. The test was carried out in soundproof compartments. Student's t-test was resorted to for statistical treatment.

A short description of data set [7]: Induction of yawning behavior. As to conditions: in vivo.
In data set [8] the test system is test animals. Put plainly: Induction of catalepsy in test animals. Type of data set: in vivo.

Turning to `CSCC[C@H](NC(=O)[C@H](Cc1ccc(OS(=O)(=O)O)cc1)NC(=O)[C@@H](N)CC(=O)O)C(=O)NCC(=O)N[C@@H](Cc1c[nH]c2ccccc12)C(=O)N[C@@H](CCSC)C(=O)N[C@@H](CC(=O)O)C(=O)N[C@@H](Cc1ccccc1)C(N)=O` [CCK-8, Asp--Tyr(SO3 H)--Met--Gly--Trp--Met--Asp--Phe--NH2, reference compound], the “Average: Mean ± S.E. (total of 7 scores), climbing behavior” value stood at 10.2 ± 0.7 in data set [1] (0.01 mg/kg s.c.); 11.4 ± 0.6 in data set [1] (0.1 mg/kg s.c.); 9.5 ± 1.0 in data set [1] (1 mg/kg s.c.); 10.2 ± 0.7 in data set [6] (0.01 mg/kg s.c.); 11.4 ± 0.6 in data set [6] (0.1 mg/kg s.c.); 9.5 ± 1.0 in data set [6] (1.0 mg/kg s.c.). In data set [1] (mice, s.c.), the “Effect on apomorphine-induced climbing behavior (in words)” value is “little or no influence on the climbing behavior; also recorded: does not inhibit this behavior”. Further, the “Acceleration of the metabolism of dopamine in the brain of rats (in words)” value in data set [2] is on record as “does not accelerate the metabolism of dopamine”. Also, in data set [3] (1 mg/kg s.c., 30 min before apomorphine 0.03 mg/kg s.c., counted 30 min, control 4.5), the “Number of yawns (average)” value was determined as 4.9. Moreover, the “Effect on yawning behavior induced by apomorphine (in words)” value in data set [3] (rats, s.c.) is “not inhibited”. In data set [4], the “ED50, inhibition of FR20 responding” value stood at 0.0221 mg/kg. The “ED50, inhibition of methylphenidate-induced hyperlocomotion” value in data set [5] came to 0.5125 mg/kg. For the same molecule, the “Induction of yawning behavior (thought to be induced by a reduction in the amount of dopamine)” value in data set [7] is given as “induces no yawning behavior whatsoever”. In data set [8], the “Induction of catalepsy (side effect)” value is “induces catalepsy”.
In the case of `CSCC[C@H](NC(=O)[C@H](Cc1ccc(OS(=O)(=O)O)cc1)NC(=O)CCCC(=O)O)C(=O)NCC(=O)N[C@@H](Cc1c[nH]c2ccccc12)C(=O)N[C@@H](CCSC)C(=O)N[C@@H](CC(=O)O)C(=O)N[C@@H](Cc1ccccc1)C(N)=O` [Peptide E, Glt--Tyr(SO3 H)--Met--Gly--Trp--Met--Asp--Phe--NH2] (HELM PEPTIDE1{[O=C(O)CCCC(=O)[*:2]].[O=C([C@H](Cc1ccc(OS(=O)(=O)O)cc1)N[*:1])[*:2]].M.G.W.M.D.F.[am]}$$$$V2.0), the “ED50, inhibition of FR20 responding” value in data set [4] turned out to be 0.004 mg/kg. In addition, in data set [5] (s.c.), the “Inhibitory effect on methylphenidate-induced hyperlocomotion (in words)” value was “especially high inhibitory effect”. The “ED50, inhibition of methylphenidate-induced hyperlocomotion” value in data set [5] stood at 0.0879 mg/kg. The “Average: Mean ± S.E. (total of 7 scores), climbing behavior” value in data set [6] (0.1 mg/kg s.c.) is recorded as 9.1 ± 0.9; in data set [6] (0.3 mg/kg s.c.), 7.9 ± 0.9; in data set [6] (1.0 mg/kg s.c.) it was 6.5 ± 0.7.
